From ChEMBL document CHEMBL5113398, “Design and synthesis of new quinoline derivatives as selective C-RAF kinase inhibitors with potent anticancer activity” (Eur J Med Chem, 2022)

Assays:
[1] = tested on: IGROV-1; experiment: Anticancer activity against human IGROV-1 cells assessed as total cell growth inhibition incubated for 48 hrs by SRB assay; type: functional
[2] = tested on: MDA-MB-468; experiment: Anticancer activity against human MDA-MB-468 cells assessed as cell growth inhibition incubated for 48 hrs by SRB assay; type: functional
[3] = target: RAF proto-oncogene serine/threonine-protein kinase (Homo sapiens, UniProt P04049); experiment: Inhibition of c-Raf (unknown origin) in presence of ATP by hotspot kinase assay
[4] = tested on: UACC-62; experiment: Anticancer activity against human UACC-62 cells assessed as cell growth inhibition incubated for 48 hrs by SRB assay; type: functional
[5] = tested on: NCI-H522; experiment: Anticancer activity against human NCI-H522 cells assessed as cell growth inhibition incubated for 48 hrs by SRB assay; type: functional
[6] = tested on: OVCAR-4; experiment: Anticancer activity against human OVCAR-4 cells assessed as cell growth inhibition incubated for 48 hrs by SRB assay; type: functional
[7] = tested on: OVCAR-5; experiment: Anticancer activity against human OVCAR-5 cells assessed as cell growth inhibition incubated for 48 hrs by SRB assay; type: functional
[8] = tested on: RXF 393; experiment: Anticancer activity against human RXF 393 cells assessed as total cell growth inhibition incubated for 48 hrs by SRB assay; type: functional
[9] = tested on: HCT-15; experiment: Anticancer activity against human HCT-15 cells assessed as total cell growth inhibition incubated for 48 hrs by SRB assay; type: functional
[10] = tested on: DU-145; experiment: Anticancer activity against human DU-145 cells assessed as total cell growth inhibition incubated for 48 hrs by SRB assay; type: functional
[11] = tested on: U-251; experiment: Anticancer activity against human U-251 cells assessed as cell growth inhibition incubated for 48 hrs by SRB assay; type: functional
[12] = tested on: BT-549; experiment: Anticancer activity against human BT-549 cells assessed as cell growth inhibition incubated for 48 hrs by SRB assay; type: functional
[13] = tested on: A549; experiment: Anticancer activity against human A549 cells assessed as cell growth inhibition incubated for 48 hrs by SRB assay; type: functional
[14] = tested on: OVCAR-4; experiment: Anticancer activity against human OVCAR-4 cells assessed as total cell growth inhibition incubated for 48 hrs by SRB assay; type: functional
[15] = tested on: NCI-H23; experiment: Anticancer activity against human NCI-H23 cells assessed as cell growth inhibition incubated for 48 hrs by SRB assay; type: functional
[16] = tested on: A549; experiment: Anticancer activity against human A549 cells assessed as total cell growth inhibition incubated for 48 hrs by SRB assay; type: functional
[17] = tested on: M14; experiment: Anticancer activity against human M14 cells assessed as total cell growth inhibition incubated for 48 hrs by SRB assay; type: functional
[18] = tested on: TK-10; experiment: Anticancer activity against human TK-10 cells assessed as total cell growth inhibition incubated for 48 hrs by SRB assay; type: functional
[19] = tested on: Hs-578T; experiment: Anticancer activity against human Hs-578T cells assessed as cell growth inhibition incubated for 48 hrs by SRB assay; type: functional
[20] = tested on: HT-29; experiment: Anticancer activity against human HT-29 cells assessed as total cell growth inhibition incubated for 48 hrs by SRB assay; type: functional
[21] = tested on: SK-MEL-28; experiment: Anticancer activity against human SK-MEL-28 cells assessed as cell growth inhibition incubated for 48 hrs by SRB assay; type: functional
[22] = n-Octanol/PBS partition coefficient, logD of the compound at pH 7.4; type: physicochemical
[23] = tested on: LOX IMVI; experiment: Anticancer activity against human LOX IMVI cells assessed as total cell growth inhibition incubated for 48 hrs by SRB assay; type: functional
[24] = tested on: SNB-19; experiment: Anticancer activity against human SNB-19 cells assessed as total cell growth inhibition incubated for 48 hrs by SRB assay; type: functional
[25] = tested on: DU-145; experiment: Anticancer activity against human DU-145 cells assessed as cell growth inhibition incubated for 48 hrs by SRB assay; type: functional
[26] = tested on: T47D; experiment: Anticancer activity against human T47D cells assessed as cell growth inhibition incubated for 48 hrs by SRB assay; type: functional
[27] = tested on: SF-268; experiment: Anticancer activity against human SF-268 cells assessed as total cell growth inhibition incubated for 48 hrs by SRB assay; type: functional
[28] = tested on: MOLT-4; experiment: Anticancer activity against human MOLT-4 cells assessed as cell growth inhibition incubated for 48 hrs by SRB assay; type: functional
[29] = tested on: PC-3; experiment: Anticancer activity against human PC-3 cells assessed as cell growth inhibition incubated for 48 hrs by SRB assay; type: functional
[30] = tested on: TK-10; experiment: Anticancer activity against human TK-10 cells assessed as cell growth inhibition incubated for 48 hrs by SRB assay; type: functional
[31] = tested on: HOP-62; experiment: Anticancer activity against human HOP-62 cells assessed as total cell growth inhibition incubated for 48 hrs by SRB assay; type: functional
[32] = tested on: SN12C; experiment: Anticancer activity against human SN12C cells assessed as cell growth inhibition incubated for 48 hrs by SRB assay; type: functional
[33] = tested on: HCC 2998; experiment: Anticancer activity against human HCC 2998 cells assessed as cell growth inhibition incubated for 48 hrs by SRB assay; type: functional
[34] = tested on: K562; experiment: Anticancer activity against human K562 cells assessed as total cell growth inhibition incubated for 48 hrs by SRB assay; type: functional
[35] = tested on: NCI-H460; experiment: Anticancer activity against human NCI-H460 cells assessed as total cell growth inhibition incubated for 48 hrs by SRB assay; type: functional
[36] = tested on: NCI-H226; experiment: Anticancer activity against human NCI-H226 cells assessed as total cell growth inhibition incubated for 48 hrs by SRB assay; type: functional
[37] = tested on: SK-MEL-5; experiment: Anticancer activity against human SK-MEL-5 cells assessed as total cell growth inhibition incubated for 48 hrs by SRB assay; type: functional
[38] = tested on: CAKI-1; experiment: Anticancer activity against human CAKI-1 cells assessed as total cell growth inhibition incubated for 48 hrs by SRB assay; type: functional
[39] = tested on: NCI-H322M; experiment: Anticancer activity against human NCI-H322M cells assessed as cell growth inhibition incubated for 48 hrs by SRB assay; type: functional
[40] = tested on: OVCAR-3; experiment: Anticancer activity against human OVCAR-3 cells assessed as cell growth inhibition incubated for 48 hrs by SRB assay; type: functional
[41] = tested on: HOP-92; experiment: Anticancer activity against human HOP-92 cells assessed as total cell growth inhibition incubated for 48 hrs by SRB assay; type: functional
[42] = tested on: A498; experiment: Anticancer activity against human A498 cells assessed as cell growth inhibition incubated for 48 hrs by SRB assay; type: functional
[43] = target: Receptor-type tyrosine-protein kinase FLT3 (Homo sapiens) (UniProt P36888); experiment: Inhibition of FLT3 (unknown origin) at 1 uM in presence of ATP by hotspot kinase assay
[44] = tested on: ACHN; experiment: Anticancer activity against human ACHN cells assessed as cell growth inhibition incubated for 48 hrs by SRB assay; type: functional
[45] = tested on: OVCAR-5; experiment: Anticancer activity against human OVCAR-5 cells assessed as total cell growth inhibition incubated for 48 hrs by SRB assay; type: functional
[46] = target: Vascular endothelial growth factor receptor 2 (Homo sapiens) (UniProt P35968); experiment: Inhibition of KDR (unknown origin) at 1 uM in presence of ATP by hotspot kinase assay
[47] = tested on: HL-60; experiment: Anticancer activity against human HL-60 cells assessed as total cell growth inhibition incubated for 48 hrs by SRB assay; type: functional
[48] = tested on: MCF7; experiment: Anticancer activity against human MCF7 cells assessed as cell growth inhibition incubated for 48 hrs by SRB assay; type: functional

Sequence of Vascular endothelial growth factor receptor 2 (Homo sapiens) (P35968 whole entry): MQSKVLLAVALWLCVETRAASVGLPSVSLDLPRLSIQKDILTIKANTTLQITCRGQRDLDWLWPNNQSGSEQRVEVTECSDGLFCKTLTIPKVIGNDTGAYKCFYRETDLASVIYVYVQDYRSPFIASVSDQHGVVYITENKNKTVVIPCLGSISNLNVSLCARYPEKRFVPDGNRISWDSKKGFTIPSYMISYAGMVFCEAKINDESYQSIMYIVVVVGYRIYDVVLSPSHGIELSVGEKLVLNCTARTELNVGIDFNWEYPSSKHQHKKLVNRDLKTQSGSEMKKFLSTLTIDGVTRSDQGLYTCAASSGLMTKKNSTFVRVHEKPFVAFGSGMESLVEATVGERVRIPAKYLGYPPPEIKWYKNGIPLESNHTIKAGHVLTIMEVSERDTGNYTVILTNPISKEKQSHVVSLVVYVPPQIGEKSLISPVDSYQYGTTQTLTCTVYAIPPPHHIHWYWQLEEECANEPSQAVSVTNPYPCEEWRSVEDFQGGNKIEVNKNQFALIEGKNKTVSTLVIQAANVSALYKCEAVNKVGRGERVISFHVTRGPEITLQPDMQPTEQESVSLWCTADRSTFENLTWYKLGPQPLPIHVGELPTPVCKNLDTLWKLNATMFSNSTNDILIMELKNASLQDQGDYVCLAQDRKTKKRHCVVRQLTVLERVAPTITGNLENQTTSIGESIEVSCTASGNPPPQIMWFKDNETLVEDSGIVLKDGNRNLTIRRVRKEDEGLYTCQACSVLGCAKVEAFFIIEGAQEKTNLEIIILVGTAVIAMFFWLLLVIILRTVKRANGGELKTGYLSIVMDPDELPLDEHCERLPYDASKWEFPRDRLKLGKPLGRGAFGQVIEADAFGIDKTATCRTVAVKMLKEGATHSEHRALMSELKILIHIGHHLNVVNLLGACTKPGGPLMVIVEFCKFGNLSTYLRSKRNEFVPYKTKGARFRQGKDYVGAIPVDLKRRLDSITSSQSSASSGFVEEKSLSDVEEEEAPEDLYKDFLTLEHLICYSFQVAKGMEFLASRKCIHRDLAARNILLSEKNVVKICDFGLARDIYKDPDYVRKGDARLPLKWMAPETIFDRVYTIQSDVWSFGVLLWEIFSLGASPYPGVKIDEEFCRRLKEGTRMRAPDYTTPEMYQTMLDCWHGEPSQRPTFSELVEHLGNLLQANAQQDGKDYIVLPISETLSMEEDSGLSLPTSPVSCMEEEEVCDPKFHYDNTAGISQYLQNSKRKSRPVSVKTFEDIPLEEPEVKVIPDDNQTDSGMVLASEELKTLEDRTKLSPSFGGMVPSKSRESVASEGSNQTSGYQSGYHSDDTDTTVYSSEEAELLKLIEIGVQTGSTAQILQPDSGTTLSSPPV
Sequence of Receptor-type tyrosine-protein kinase FLT3 (Homo sapiens) (P36888 whole entry): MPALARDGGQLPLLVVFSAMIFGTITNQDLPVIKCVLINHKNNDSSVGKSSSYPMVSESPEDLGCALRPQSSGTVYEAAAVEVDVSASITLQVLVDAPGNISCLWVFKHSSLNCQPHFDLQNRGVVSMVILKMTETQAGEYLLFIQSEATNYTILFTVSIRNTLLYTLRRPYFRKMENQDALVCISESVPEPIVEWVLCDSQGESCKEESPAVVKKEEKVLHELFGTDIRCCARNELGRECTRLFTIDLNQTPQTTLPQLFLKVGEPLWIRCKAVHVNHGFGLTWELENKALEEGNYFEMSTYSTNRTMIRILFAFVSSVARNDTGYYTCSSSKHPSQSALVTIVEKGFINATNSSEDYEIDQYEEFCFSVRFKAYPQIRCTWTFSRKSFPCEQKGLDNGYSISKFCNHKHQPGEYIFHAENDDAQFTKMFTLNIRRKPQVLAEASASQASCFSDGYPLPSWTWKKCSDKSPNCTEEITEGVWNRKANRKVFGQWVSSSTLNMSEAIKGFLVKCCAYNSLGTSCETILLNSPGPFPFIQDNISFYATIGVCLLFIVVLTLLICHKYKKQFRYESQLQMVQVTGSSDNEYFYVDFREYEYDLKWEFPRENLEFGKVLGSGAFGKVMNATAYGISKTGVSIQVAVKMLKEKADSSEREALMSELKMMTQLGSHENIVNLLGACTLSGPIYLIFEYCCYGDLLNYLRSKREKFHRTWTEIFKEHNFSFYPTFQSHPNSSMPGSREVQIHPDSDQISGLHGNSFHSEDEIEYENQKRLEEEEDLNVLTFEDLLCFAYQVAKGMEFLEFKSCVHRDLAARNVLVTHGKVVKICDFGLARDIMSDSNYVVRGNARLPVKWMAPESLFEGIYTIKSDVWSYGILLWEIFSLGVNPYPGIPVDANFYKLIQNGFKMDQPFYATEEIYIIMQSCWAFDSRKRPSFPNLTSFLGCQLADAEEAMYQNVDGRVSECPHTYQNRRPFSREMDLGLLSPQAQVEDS
Sequence of RAF proto-oncogene serine/threonine-protein kinase (P04049 whole entry): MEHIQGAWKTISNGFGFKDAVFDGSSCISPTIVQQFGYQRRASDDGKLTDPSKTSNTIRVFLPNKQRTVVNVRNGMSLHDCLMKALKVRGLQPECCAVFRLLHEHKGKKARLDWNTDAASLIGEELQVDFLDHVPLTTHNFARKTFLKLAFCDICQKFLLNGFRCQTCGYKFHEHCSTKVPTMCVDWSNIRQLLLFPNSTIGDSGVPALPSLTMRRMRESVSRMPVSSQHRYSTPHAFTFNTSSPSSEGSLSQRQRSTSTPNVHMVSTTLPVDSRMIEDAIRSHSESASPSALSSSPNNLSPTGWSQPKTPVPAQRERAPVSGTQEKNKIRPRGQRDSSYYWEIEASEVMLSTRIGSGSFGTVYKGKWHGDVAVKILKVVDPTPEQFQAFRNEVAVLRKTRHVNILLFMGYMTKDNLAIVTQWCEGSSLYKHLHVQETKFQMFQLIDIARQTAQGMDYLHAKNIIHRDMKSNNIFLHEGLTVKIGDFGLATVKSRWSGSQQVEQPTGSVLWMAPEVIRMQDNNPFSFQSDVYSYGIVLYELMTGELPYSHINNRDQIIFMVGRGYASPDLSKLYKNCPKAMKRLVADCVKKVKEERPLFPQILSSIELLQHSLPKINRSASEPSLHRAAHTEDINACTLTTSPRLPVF

GI50 [2]: 1220 nM
IC50 [3]: 193 nM
GI50 [5]: 1630 nM
GI50 [6]: 1880 nM
GI50 [7]: 2180 nM
GI50 [11]: 1130 nM
GI50 [12]: 1870 nM
GI50 [13]: 1720 nM
GI50 [15]: 1660 nM
GI50 [21]: 1800 nM
logD [22]: 2.91
GI50 [25]: 1930 nM
GI50 [26]: 2040 nM
GI50 [28]: 1320 nM
GI50 [29]: 1180 nM
GI50 [33]: 2090 nM
GI50 [39]: 1820 nM
GI50 [40]: 1430 nM
inhibition [43]: 20.5%
GI50 [44]: 1530 nM
inhibition [46]: 4.5%
GI50 [48]: 1430 nM
SMILES: COc1cc2cc(Oc3ccc(NC(=O)Nc4cc(C(F)(F)F)cc(C(F)(F)F)c4)cc3)c(C)nc2cc1OCCN1CCOCC1
TGI [1]: 6900 nM
GI50 [4]: 1670 nM
TGI [8]: 2990 nM
TGI [9]: 2770 nM
TGI [10]: 7050 nM
TGI [14]: 6950 nM
TGI [16]: 7230 nM
TGI [17]: 5880 nM
TGI [18]: 12500 nM
GI50 [19]: 1560 nM
TGI [20]: 7140 nM
TGI [23]: 5090 nM
TGI [24]: 7420 nM
TGI [27]: 8060 nM
GI50 [30]: 3700 nM
TGI [31]: 9160 nM
GI50 [32]: 1490 nM
TGI [34]: 5500 nM
TGI [35]: 5520 nM
TGI [36]: 6530 nM
TGI [37]: 1660 nM
TGI [38]: 5680 nM
TGI [41]: 2710 nM
GI50 [42]: 1800 nM
TGI [45]: 7970 nM
TGI [47]: 4930 nM
